Where two headings read alike, the source gives them in different places.
Columns and labels:
[1] = test system: human lung carcinoma (A549) cell line; assay: MTT cell proliferation assay, A549; type: cell-based; conditions: antiproliferative, 96 h, read-out: IC50 ± SD A549
Experimental: The influence of the tested compounds on the proliferation of RPMI 8226 and A549 cells was estimated with the MTT assay as described previously. Briefly, 1 × 10^4 cells/mL (RPMI 8226) or 0.2 × 10^4 (A549) cells per well were seeded into 96-well plates and cultured (in growth medium containing 10% FBS) with different concentrations of each compound ranging from 3.125 to 100 μM. The control cells were treated with the vehicle DMSO (0.1%).

[2] = test system: human breast adenocarcinoma (MDA-MB-231) cell line; assay: MTT cell proliferation assay, MDA-MB-231; type: cell-based; conditions: MDA-MB-231, antiproliferative, MTT, 72 h, read-out: IC50 ± SD MDA-MB-231
Description: (§1) The influence of the tested compounds on the proliferation of melanoma B16F10 and breast MDA-MB-231 cells was estimated with the MTT assay as described previously. The cells counted using an automated cell counter (Countess® II FL, Invitrogen by Thermo Fisher Scientific Inc., Waltham, MA USA) and plated in 96-well plates (Nunc Edge 2F, Thermo Fisher Scientific Inc.) at a density of 0.1 × 10^4 and 0.2 × 10^4 per well, respectively. A total of twenty-four hours later, drugs were applied with final concentration: 5, 0.5, 0.05, and 0.005 μg/mL, and after an additional seventy-two hours MTT staining was performed as follows: twenty microliters of 5 mg/mL MTT solution and was added to each well of 96-well plate incubated for 2 h. Subsequently, the medium was removed and crystals of formazan were solubilized in pure isopropanol. Absorbance readout was conducted immediately using plate reader Multiskan Spectrum at 570 nm (Thermo Electron Corporation, Waltham, MA, USA). The background optical density was measured in the wells filled with culture medium, without the cells. The biological evaluation was performed as three independent experiments. The IC50 values were calculated using ED50plus v 1.0 freeware software and the mean response and standard deviation were calculated using Excel software. All of the chemicals were obtained from Sigma-Aldrich.

[3] = test system: mouse skin melanoma (B16-F10) cell line; assay: MTT cell proliferation assay, B16-F10; type: cell-based; conditions: B16-F10, antiproliferative, MTT, 72 h, read-out: IC50 ± SD B16-F10
Description: as §1

A549 cells [4] = type: cell-based, human
Experimental: The RPMI 8226 or A549 cells were seeded in 6-well plates in medium containing 10% FBS without or with compound 3a (2.5, 5, 10, 20, or 40 µM). After 24-h and 48-h treatment, the cell cycle analysis was performed by determination of the DNA contents on the basis of PI staining as described previously. Briefly, the cells were harvested, washed with PBS, and fixed overnight with 80% ethanol at −20 °C. After that, the cells were washed with PBS and stained with PI using PI/RNase Staining Buffer (BD Biosciences, BD Pharmingen™, USA) for 30 min in darkness at RT. Next, the stained cells were analyzed using FACS Calibur. The intensity of PI fluorescence of individual nuclei was determined and at least 10 000 events were measured within an acquisition rate >60 events/s. The FACS data were analyzed using Cell Quest Pro Version 6.0 (BD Biosciences, San Jose, CA, USA). for the Macintosh operating system. The data were analyzed to determine the percentage of cells at the sub-G1 phase (apoptotic cells) and each phase of the cell cycle (G1, S, and G2/M).

A549 cells [5] = assay: Annexin V-FITC/PI cell death by flow cytometry, A549; type: cell-based, human; conditions: for IC50: Homo sapiens, read-out: IC50 for apoptosis
Experimental: The quantitative analysis of compound 3a-induced cell death was performed using an Annexin V-fluorescein isothiocyanate (FITC)/propidium iodide (PI) apoptosis kit (BD Biosciences, BD Pharmingen™, San Jose, CA, USA) as previously described. Briefly, the RPMI 8226 or A549 cells growing on the 6-well plates in the culture medium with 2% FBS were subjected to increasing concentrations of compound 3a (2.5, 5, 10, 20, or 40 μM) for 24 and 48 h. After the treatment, the cells were harvested, centrifuged at 1000 rpm and room temperature (RT) for 5 min, washed twice with PBS, and stained with […] of AnnexinV-FITC and […] of PI. After incubation for 15 min in the dark at room temperature, the cells were immediately analyzed using FACS Calibur. The intensity of fluorescence of AnnexinV-FITC and PI stained cells was determined by acquisition of at least 10,000 events per sample within the rate >60 events/s. The FACS data were analyzed using Cell Quest Pro Version 6.0. for the Macintosh operating system. The data were analyzed to determine the percentage of viable, early apoptotic, late apoptotic, and necrotic cells.

CN1C2CCC1CC(=NNc1nc(-c3ccc(I)cc3)cs1)C2 [Compound 3a, 4-(4-Iodophenyl)-2-(2-(8-methyl-8-azabicyclo[3.2.1]octan-3-ylidene)hydrazinyl)thiazole] showed an IC50 [1] of 13.8 ± 1.9 µM, an IC50 [2] of 2.26 ± 0.38 µM and an IC50 [3] of 1.51 ± 0.14 µM. The “Cell cycle distribution G0/G1” value (A549 cells [4]; A549, 2.5 µM, 24 h) was 64.49±1.89 % of cells, the “Cell cycle distribution G2/M” value (A549 cells [4]; A549, 2.5 µM, 24 h) was 14.68±2.11 % of cells and the “Cell cycle distribution S” value (A549 cells [4]; A549, 2.5 µM, 24 h) was 12.39±2.34 % of cells. For the same molecule, the “Cell cycle distribution sub-G1” value (A549 cells [4]; A549, 2.5 µM, 24 h) was 8.81±3.73 % of cells, the “Cell cycle distribution G0/G1” value (A549 cells [4]; A549, 2.5 µM, 48 h) was 73.22±1.97 % of cells and the “Cell cycle distribution G2/M” value (A549 cells [4]; A549, 2.5 µM, 48 h) was 8.91±2.22 % of cells. The “Cell cycle distribution S” value (A549 cells [4]; A549, 2.5 µM, 48 h) was 6.07±1.54 % of cells, the “Cell cycle distribution sub-G1” value (A549 cells [4]; A549, 2.5 µM, 48 h) was 11.98±3.62 % of cells and the “Cell cycle distribution G0/G1” value (A549 cells [4]; A549, 5 µM, 24 h) was 65.90±2.36 % of cells. The “Cell cycle distribution G2/M” value (A549 cells [4]; A549, 5 µM, 24 h) was 13.62±2.25 % of cells, the “Cell cycle distribution S” value (A549 cells [4]; A549, 5 µM, 24 h) was 12.18±2.45 % of cells and the “Cell cycle distribution sub-G1” value (A549 cells [4]; A549, 5 µM, 24 h) was 8.94±3.39 % of cells. The “Cell cycle distribution G0/G1” value (A549 cells [4]; A549, 5 µM, 48 h) was 68.55±8.03 % of cells, the “Cell cycle distribution G2/M” value (A549 cells [4]; A549, 5 µM, 48 h) was 9.05±1.72 % of cells and the “Cell cycle distribution S” value (A549 cells [4]; A549, 5 µM, 48 h) was 6.81±2.66 % of cells. For the same molecule, the “Cell cycle distribution sub-G1” value (A549 cells [4]; A549, 5 µM, 48 h) was 15.74±6.03 % of cells, the “Cell cycle distribution G0/G1” value (A549 cells [4]; A549, 10 µM, 24 h) was 66.51±4.46 % of cells and the “Cell cycle distribution G2/M” value (A549 cells [4]; A549, 10 µM, 24 h) was 11.43±2.88 % of cells. The “Cell cycle distribution S” value (A549 cells [4]; A549, 10 µM, 24 h) was 9.82±2.73 % of cells, the “Cell cycle distribution sub-G1” value (A549 cells [4]; A549, 10 µM, 24 h) was 13.23±7.01 % of cells and the “Cell cycle distribution G0/G1” value (A549 cells [4]; A549, 10 µM, 48 h) was 68.54±6.87 % of cells. The “Cell cycle distribution G2/M” value (A549 cells [4]; A549, 10 µM, 48 h) was 8.44±1.47 % of cells, the “Cell cycle distribution S” value (A549 cells [4]; A549, 10 µM, 48 h) was 7.07±2.63 % of cells and the “Cell cycle distribution sub-G1” value (A549 cells [4]; A549, 10 µM, 48 h) was 16.15±6.33 % of cells. The “Cell cycle distribution G0/G1” value (A549 cells [4]; A549, 20 µM, 24 h) was 66.45±9.20 % of cells, the “Cell cycle distribution G2/M” value (A549 cells [4]; A549, 20 µM, 24 h) was 7.16±2.15 % of cells and the “Cell cycle distribution S” value (A549 cells [4]; A549, 20 µM, 24 h) was 5.23±2.38 % of cells. For the same molecule, the “Cell cycle distribution sub-G1” value (A549 cells [4]; A549, 20 µM, 24 h) was 22.36±12.24 % of cells, the “Cell cycle distribution G0/G1” value (A549 cells [4]; A549, 20 µM, 48 h) was 63.07±6.59 % of cells and the “Cell cycle distribution G2/M” value (A549 cells [4]; A549, 20 µM, 48 h) was 5.19±0.93 % of cells. For the same molecule, the “Cell cycle distribution S” value (A549 cells [4]; A549, 20 µM, 48 h) was 4.61±1.21 % of cells, the “Cell cycle distribution sub-G1” value (A549 cells [4]; A549, 20 µM, 48 h) was 27.32±6.78 % of cells and the “Cell cycle distribution G0/G1” value (A549 cells [4]; A549, 40 µM, 24 h) was 41.03±2.93 % of cells. The “Cell cycle distribution G2/M” value (A549 cells [4]; A549, 40 µM, 24 h) was 12.87±5.29 % of cells, the “Cell cycle distribution S” value (A549 cells [4]; A549, 40 µM, 24 h) was 11.34±0.58 % of cells and the “Cell cycle distribution sub-G1” value (A549 cells [4]; A549, 40 µM, 24 h) was 35.46±9.33 % of cells. The “Cell cycle distribution G0/G1” value (A549 cells [4]; A549, 40 µM, 48 h) was 16.49±3.46 % of cells, the “Cell cycle distribution G2/M” value (A549 cells [4]; A549, 40 µM, 48 h) was 2.19±0.38 % of cells and the “Cell cycle distribution S” value (A549 cells [4]; A549, 40 µM, 48 h) was 6.05±0.87 % of cells. For the same molecule, the “Cell cycle distribution sub-G1” value (A549 cells [4]; A549, 40 µM, 48 h) was 75.27±4.12 % of cells, the “Apoptosis (early + late)” value (A549 cells [5]; A549, 2.5 µM, 24 hours) was 14.30±2.21 % of cells ± SD and the Necrosis (A549 cells [5]; A549, 2.5 µM, 24 hours) was 4.79±1.14 % of cells ± SD. The “Apoptosis (early + late)” value (A549 cells [5]; A549, 2.5 µM, 48 hours) was 18.41±3.95 % of cells ± SD, the Necrosis (A549 cells [5]; A549, 2.5 µM, 48 hours) was 4.11±1.44 % of cells ± SD and the “Apoptosis (early + late)” value (A549 cells [5]; A549, 5 µM, 24 hours) was 14.82±2.42 % of cells ± SD. The Necrosis (A549 cells [5]; A549, 5 µM, 24 hours) was 4.40±1.66 % of cells ± SD, the “Apoptosis (early + late)” value (A549 cells [5]; A549, 5 µM, 48 hours) was 22.48±8.36 % of cells ± SD and the Necrosis (A549 cells [5]; A549, 5 µM, 48 hours) was 4.93±4.26 % of cells ± SD. For the same molecule, the “Apoptosis (early + late)” value (A549 cells [5]; A549, 10 µM, 24 hours) was 18.18±2.52 % of cells ± SD, the Necrosis (A549 cells [5]; A549, 10 µM, 24 hours) was 4.87±1.35 % of cells ± SD and the “Apoptosis (early + late)” value (A549 cells [5]; A549, 10 µM, 48 hours) was 27.17±11.71 % of cells ± SD. The Necrosis (A549 cells [5]; A549, 10 µM, 48 hours) was 4.09±2.58 % of cells ± SD, the “Apoptosis (early + late)” value (A549 cells [5]; A549, 20 µM, 24 hours) was 23.43±4.57 % of cells ± SD and the Necrosis (A549 cells [5]; A549, 20 µM, 24 hours) was 4.56±1.90 % of cells ± SD. For the same molecule, the “Apoptosis (early + late)” value (A549 cells [5]; A549, 20 µM, 48 hours) was 40.20±9.87 % of cells ± SD, the Necrosis (A549 cells [5]; A549, 20 µM, 48 hours) was 4.87±3.04 % of cells ± SD and the “Apoptosis (early + late)” value (A549 cells [5]; A549, 40 µM, 24 hours) was 73.96±19.94 % of cells ± SD. For the same molecule, the Necrosis (A549 cells [5]; A549, 40 µM, 24 hours) was 7.89±1.10 % of cells ± SD, the “Apoptosis (early + late)” value (A549 cells [5]; A549, 40 µM, 48 hours) was 89.43±6.65 % of cells ± SD and the Necrosis (A549 cells [5]; A549, 40 µM, 48 hours) was 8.81±6.51 % of cells ± SD. The Necrosis induction (A549 cells [5]; A549, up to highest concentration 40 µM) was “did not induce necrosis”, the IC50 (A549 cells [5]; A549, 24 h) was 27.7 µM and the IC50 (A549 cells [5]; A549, 48 h) was 17.4 µM.

Source: PMC7731314, “Tropinone-Derived Alkaloids as Potent Anticancer Agents: Synthesis, Tyrosinase Inhibition, Mechanism of Action, DFT Calculation, and Molecular Docking Studies” (International Journal of Molecular Sciences, 2020)
